Test results from US11191773B2, “Methods of treatment for bacterial infections” (President and Fellows of Harvard College, priority 2017, dated 2021).
Like-named read-outs stand apart in the source and are kept apart here.

Experiments:
[1] = test system: A. baumannii (ATCC: 19606) mutant that is novobiocin and polymyxin-resistant; assay: Checkerboard microdilution assay, polymyxin-resistant strain; assay type: cell-based; settings: 37° C. for 24 h
Method: The effect of novobiocin/polymyxin combination was further assessed in polymyxin-resistant strains using checkerboard microdilution assays. In these assays, polymyxin-resistant strains (E. coli (clinical isolate from Brigham and Women's Hospital); A. baumannii (ATCC: 19606) mutant that is novobiocin and polymyxin-resistant; and K. pneumoniae (clinical isolate from Brigham and Women's Hospital)) were grown at 37° C. for 24 h.

[2] = test system: E. coli strain ATCC 25922; assay: Neutropenic mouse thigh infection efficacy; assay type: in vivo
Method: Female CD-1 mice from Charles River Laboratories were allowed to acclimate for 5 days prior to start of study. Animals were housed four per cage with free access to food and water. Mice received two doses of cyclophosphamide on days −4 and −1 with 150 mg/kg and 100 mg/kg delivered IP, respectively. All procedures were performed to NeoSome IACUC policies and guidelines as well as OLAW standards.
E. coli strain ATCC 25922 was prepared for infection from an overnight plate culture. A portion of the plate was resuspended in sterile saline and adjusted to an OD of 0.15 at 625 nm. The adjusted bacterial suspension was further diluted to target an infecting inoculum of 1.5×10^5 CFU/mouse, the actual inoculum size for E. coli was 1.45×10^5 CFU/mouse. Plate counts of the inoculum was performed to confirm inoculum concentration.
Mice were inoculated with 100 μL of the prepared bacterial suspension via intramuscular injection into the right rear thigh.
Beginning at two hours post infection, mice were dosed with test agents subcutaneously at 10 mL/kg. A second dose of test agents was delivered at 6 hours post infection. For co-administered therapy, test agents were delivered separately at two different injection sites. Four animals were dosed per group. One group of four mice were euthanized at initiation of therapy (T=2 h) and CFUs determined. All remaining mice were euthanized at 26 hours post infection. At termination, thighs were aseptically excised, weighed, and homogenized to a uniform consistency in 2 mL of sterile saline. The homogenate was serially diluted and plated on bacterial growth media. The CFUs were enumerated after overnight incubation. The average and standard deviations for each group were determined.
Neutropenic mice infected with E. coli were treated with novobiocin, polymyxin B, or a combination of the two for the evaluation of efficacy is a thigh infection model.

lptB1(G33C) = assay: Disk diffusion assay; assay type: cell-based, E. coli; settings: Escherichia coli, read-out: Zone of inhibition, diameter of the zone of total growth inhibition
Method: (§1) Zones of inhibition were measured in disk diffusion assays of wild type, IptB1, and suppressors IptB1(R144H) and IptB1(G33C) pictured in FIG. 6B. Assays were conducted with 6-mm disks. Numbers outside of parentheses report the diameter of the zone of total growth inhibition (in mm), while numbers inside parenthesis report the diameter of the zone of partial growth inhibition.
(§2) Disk diffusion assays were performed as described in Sherman et al., Proc. Natl. Acad. Sci. USA 2014, 111, 4982-4987. Premade Sensi-Disc (BD-Beckton, Dickinson and Company) were used for bacitracin 10IU, erythromycin 15 μg, novobiocin 30 μg, and rifampin 5 μg.

lptB1(R144H) = assay: Disk diffusion assay; assay type: cell-based, E. coli; settings: Escherichia coli, read-out: Zone of inhibition, diameter of the zone of total growth inhibition
Method: as §1, §2

lptB1 = assay: Disk diffusion assay; assay type: cell-based, E. coli; settings: Escherichia coli
Method: as §1, §2

wild type = assay: Disk diffusion assay; assay type: cell-based, E. coli; settings: Escherichia coli; 6-mm disks; bacitracin 10IU, erythromycin 15 μg, novobiocin 30 μg, rifampin 5 μg, nalidixic acid 5 μg; read-out: Zone of inhibition, diameter of the zone of total growth inhibition
Method: as §1, §2

[3] = target: T1, wild-type LptB2FGC complexes (Escherichia coli, UniProt P0A9V1); assay: LPS-release assay, right-side-out vesicles to LptA*; assay type: biochemical, E. coli
T1 construct: made in house; host or cells: right-side-out membrane vesicles from E. coli BL-21(λDE3) overexpressing the complex
Method: FIG. 9A is a schematic drawing showing the assay to monitor LPS release from right-side-out vesicles to LptA* (LptA(I36pBPA)). Vesicles containing overexpressed wild-type or mutant LptB2FGC complexes were incubated with LptA* and ATP at 30° C. to initiate LPS extraction and transport from the vesicles to LptA*. Samples were taken at different time points and UV-irradiated to crosslink LPS to LptA*, and accumulation of LPS-LptA* adducts was detected using LPS immunoblots.
FIG. 9D is a picture of an immunoblot showing that novobiocin and derivatives with impaired gyrase activities stimulate LPS transport in E. coli in vitro. […] Samples were UV irradiated at 365 nm for 5 minutes and then quenched with 2X SDS/5% β-mercaptoethanol. Samples were immunoblotted.
The assay detects via immunoblot LPS that becomes crosslinked to LptA* in the presence of UV light. […] By comparison, vesicles containing LptB2LptFG(ch)C complexes released less LPS over time (FIG. 9B, lanes 5-8). These experiments provide direct evidence that the amino acid changes in LptFG(ch), which were known to affect complex formation with LptB, impair LPS release. […] These compounds also increase LPS release from vesicles containing wild-type LptB2FGC complexes or LptB(R91 S)2FGC complexes (FIG. 17).
Samples were UV irradiated at 365 nm for 5 minutes and then quenched with 2X SDS/5% β-mercaptoethanol. Samples were immunoblotted.
The in vitro LPS-transport experiments in FIGS. 9B, 9C, and 17 were set-up as described in (Okuda et al. Science 2012, 338, 1214-1217) with some modifications. RSO-vesicles (50 μg total protein) were diluted into 100 μL reaction buffer (10% v/v glycerol, 20 mM Tris (pH 8.0), 150 mM NaCl, 5 mM sodium-ATP, 5 mM MgCl2), and incubated on ice with novobiocin, 1-adamantyl-novobiocin, or no compound for 15 minutes (50× compound stocks in water were used for each concentration). […]
Immunoblotting was used to assess LptA*-LPS levels in each sample. […] LptA levels were assessed similarly, using rabbit anti-LptA antiserum followed by donkey anti-rabbit horseradish peroxidase conjugate (GE Amersham). […]

[4] = Novobiocin 200 mg/kg (total 400) BID/SC

T1 sequence (P0AF98 whole entry): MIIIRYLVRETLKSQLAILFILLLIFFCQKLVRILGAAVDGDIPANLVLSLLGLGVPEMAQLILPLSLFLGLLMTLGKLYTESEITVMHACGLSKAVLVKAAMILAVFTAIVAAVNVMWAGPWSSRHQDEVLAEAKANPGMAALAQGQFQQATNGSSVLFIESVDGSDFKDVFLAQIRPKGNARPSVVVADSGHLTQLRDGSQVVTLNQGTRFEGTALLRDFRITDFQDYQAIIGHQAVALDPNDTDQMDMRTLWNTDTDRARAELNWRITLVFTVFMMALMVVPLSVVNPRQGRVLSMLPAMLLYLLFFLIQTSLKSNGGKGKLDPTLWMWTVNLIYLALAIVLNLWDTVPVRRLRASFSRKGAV
T1 sequence (P0ADV9 whole entry, further chain): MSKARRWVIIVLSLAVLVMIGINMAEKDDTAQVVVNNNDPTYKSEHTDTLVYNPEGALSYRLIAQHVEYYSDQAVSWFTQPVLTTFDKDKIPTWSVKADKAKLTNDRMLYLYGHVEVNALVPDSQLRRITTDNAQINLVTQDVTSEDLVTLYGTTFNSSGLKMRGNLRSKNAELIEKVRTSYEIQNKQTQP
T1 sequence (P0ADC6 whole entry, further chain): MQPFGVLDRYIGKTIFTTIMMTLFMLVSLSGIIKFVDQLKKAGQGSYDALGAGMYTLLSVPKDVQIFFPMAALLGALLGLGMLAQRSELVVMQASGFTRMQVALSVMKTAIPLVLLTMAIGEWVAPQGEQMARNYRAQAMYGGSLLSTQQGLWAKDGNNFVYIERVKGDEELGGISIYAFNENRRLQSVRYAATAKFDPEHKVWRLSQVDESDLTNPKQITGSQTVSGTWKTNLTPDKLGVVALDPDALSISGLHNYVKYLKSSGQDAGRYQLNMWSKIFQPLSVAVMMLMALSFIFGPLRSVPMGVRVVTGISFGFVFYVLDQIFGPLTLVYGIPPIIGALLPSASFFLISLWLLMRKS
T1 sequence (P0A9V1 2-241): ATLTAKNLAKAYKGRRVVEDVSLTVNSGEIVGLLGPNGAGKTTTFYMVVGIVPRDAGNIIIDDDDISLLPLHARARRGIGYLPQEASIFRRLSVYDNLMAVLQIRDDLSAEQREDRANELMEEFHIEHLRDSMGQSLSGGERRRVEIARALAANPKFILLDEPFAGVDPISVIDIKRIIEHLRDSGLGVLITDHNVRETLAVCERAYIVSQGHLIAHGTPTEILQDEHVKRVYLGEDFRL

Structure (SMILES): CO[C@@H]1[C@@H](OC(N)=O)[C@@H](O)[C@H](Oc2ccc3c(O)c(NC(=O)c4ccc(O)c(CC=C(C)C)c4)c(=O)oc3c2C)OC1(C)C [Novobiocin, novobiocin]
- synergy with polymyxin B [1]: synergizes with polymyxin B
- change in log10 CFU/g of thigh from 2 hour control [2, 4]: 3.58 log10 CFU/g of thigh
- change in log10 CFU/g of thigh from 26 hour controls [2, 4]: −0.51 log10 CFU/g of thigh
- activity against this isolate ([2]; Novobiocin delivered at 200 mg/kg): did not demonstrate significant activity
- Average log10 CFU/g of thigh ([2]; neutropenic CD-1 mice, Novobiocin 200 mg/kg (total 400) BID/SC, 26 hours post infection): 9.12 log10 CFU/g of thigh
- zone of inhibition at 30 µg/disc (lptB1(G33C)): < 6 mm
- zone of inhibition at 30 µg/disc (lptB1(R144H)): < 6 mm
- zone of inhibition at 30 µg/disc (lptB1; read-out: Zone of inhibition, diameter of the zone of partial growth inhibition (in parentheses)): 24 mm
- zone of inhibition at 30 µg/disc (lptB1; read-out: Zone of inhibition, diameter of the zone of total growth inhibition): 14 mm
- zone of inhibition at 30 µg/disc (wild type): < 6 mm
- LPS transport in vitro ([3]; overexpressed LptB2FGC vesicles, 30° C. for 1 hour (FIG. 9D, 9E)): stimulate LPS transport in vitro
- LPS release from vesicles to LptA* ([3]; wild-type LptB2FGC or LptB(R91 S)2FGC vesicles (FIG. 17)): stimulates LPS release
